Measurements published in patent US6534542B2, “(2-hydroxy)ethyl-thioureas useful as modulators of α2B adrenergic receptors” (Allergen Sales, Inc., priority 2001, dated 2003).

Columns and labels:
alpha2B receptor = target: T1, alpha2B receptor (Homo sapiens, UniProt P18089); experiment: Receptor Selection and Amplification Technology (RSAT) assay, alpha2B; type: cell-based; details: NIH-3T3 cells; for EC50: NA = not active at concentrations less than 10 micromolar, read-out: RSAT EC50 (nM) Alpha 2B; for fraction of activity of the standard (brimonidine) attained, Alpha 2B (number in parenthesis): ratio of maximal effect to that of standard full agonist brimonidine
T1 construct: expressed in transfected cells; host or cells: NIH-3T3
T1 sequence (P18089 1-450): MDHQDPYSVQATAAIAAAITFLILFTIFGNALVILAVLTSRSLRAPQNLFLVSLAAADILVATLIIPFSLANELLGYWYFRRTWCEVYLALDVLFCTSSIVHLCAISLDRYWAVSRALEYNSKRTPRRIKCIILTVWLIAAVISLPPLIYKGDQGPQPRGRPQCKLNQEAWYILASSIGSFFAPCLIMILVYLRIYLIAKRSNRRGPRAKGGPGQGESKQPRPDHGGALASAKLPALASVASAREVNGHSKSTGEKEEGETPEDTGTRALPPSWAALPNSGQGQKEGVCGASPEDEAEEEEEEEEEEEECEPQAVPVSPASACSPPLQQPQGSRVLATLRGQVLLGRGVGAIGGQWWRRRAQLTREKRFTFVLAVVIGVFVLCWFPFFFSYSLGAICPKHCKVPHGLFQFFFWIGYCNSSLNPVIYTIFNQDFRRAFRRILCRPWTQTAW
Source text: (§1) The compounds of the invention are agonists of α2 adrenergic receptors, particularly they tend to be specific or selective agonists of α2B and/or to a lesser extent α2C adrenergic receptors, in preference over α2A adrenergic receptors. […] Al., 1995, Pharmacol. Toxicol. 76, pp. 308-311 (incorporated herein by reference) and is also described below. Another reference pertinent to this assay is Conklin et al. (1993) Nature 363:274-6, also incorporated herein by reference.
(§2) The RSAT assay measures a receptor-mediated loss of contact inhibition that results in selective proliferation of receptor-containing cells in a mixed population of confluent cells. The increase in cell number is assessed with an appropriate transfected marker gene such as β-galactosidase, the activity of which can be easily measured in a 96-well format. Receptors that activate the G protein, Gq, elicit this response. Alpha2 receptors, which normally couple to Gi, activate the RSAT response when coexpressed with a hybrid Gq protein that has a Gi receptor recognition domain, called Gq/i5^2.
(§3) NIH-3T3 cells are plated at a density of 2×10^6 cells in 15 cm dishes and maintained in Dulbecco's modified Eagle's medium supplemented with 10% calf serum. One day later, cells are cotransfected by calcium phosphate precipitation with mammalian expression plasmids encoding p-SV-β-galactosidase (5-10 μg), receptor (1-2 μg) and G protein (1-2 μg). 40 μg salmon sperm DNA may also be included in the transfection mixture. Fresh media is added on the following day and 1-2 days later, cells are harvested and frozen in 50 assay aliquots. Cells are thawed and 100 μl added to 100 μl aliquots of various concentrations of drugs in triplicate in 96-well dishes. Incubations continue 72-96 hr at 37°. After washing with phosphate-buffered saline, β-galactosidase enzyme activity is determined by adding 200 μl of the chromogenic substrate (consisting of 3.5 mM o-nitrophenyl-β-D-galactopyranoside and 0.5% nonidet P-40 in phosphate buffered saline), incubating overnight at 30 and measuring optical density at 420 nm. The absorbance is a measure of enzyme activity, which depends on cell number and reflects a receptor-mediated cell proliferation. The EC50 and maximal effect of each drug at each alpha2 receptor is determined. The efficacy or intrinsic activity is calculated as a ratio of the maximal effect of the drug to the maximal effect of a standard full agonist for each receptor subtype. Brimonidine, also called […], the chemical structure of which is shown below, is used as the standard agonist for the alpha2A, alpha2B and alpha2C receptors. [drawing 6]
(§4) The results of the RSAT assay with several exemplary compounds of the invention are disclosed in Table 3. […] NA stands for “not active” at concentrations less than 10 micromolar. As is known EC50 is the concentration at which half of a given compound's maximal activity is observed. It can be seen from the table that the compounds of the invention are specific or selective agonists of α2B and/or α2C adrenergic receptors, with no agonist like activity or only with insignificant agonist-like activity on α2A receptors.

[1] = tested on: rats with ligated L5 and L6 spinal nerves; experiment: Alleviation of chronic pain: tactile allodynia after L5/L6 spinal nerve ligation (von Frey hairs); type: in vivo, rat; details: 30 minutes after administration, ±SEM
Source text: A model for chronic pain (in particular peripheral neuropathy such as causalgia) involves the surgical ligation of the L5 (and optionally the L6) spinal nerves on one side in experimental animals. Rats recovering from the surgery gain weight and display a level of general activity similar to that of normal rats. However, these rats develop abnormalities of the foot, wherein the hindpaw is moderately everted and the toes are held together. More importantly, the hindpaw on the side affected by the surgery appears to become sensitive to pain from low-threshold mechanical stimuli, such as that producing a faint sensation of touch in a human, within about 1 week following surgery. This sensitivity to normally non-painful touch is called “tactile allodynia” and lasts for at least two months. The response includes lifting the affected hindpaw to escape from the stimulus, licking the paw and holding it in the air for many seconds. None of these responses is normally seen in the control group.
Rats are anesthetized before surgery. The surgical site is shaved and prepared either with betadine or Novacaine. Incision is made from the thoracic vertebra XIII down toward the sacrum. Muscle tissue is separated from the spinal vertebra (left side) at the L4-S2 levels. The L6 vertebra is located and the transyerse process is carefully removed with a small rongeur to expose the L4-L6 spinal nerves. The L5 and L6 spinal nerves are isolated and tightly ligated with 6-0 silk thread. The same procedure is done on the right side as a control, except no ligation of the spinal nerves is performed. A complete hemostasis is confirmed, then the wounds are sutured. A small amount of antibiotic ointment is applied to the incised area, and the rat is transferred to the recovery plastic cage under a regulated heat-temperature lamp. On the day of the experiment, at least seven days after the surgery, typically six rats per test group are administered the test drugs by intraperitoneal (i.p.) injection or oral gavage. For i.p. injection, the compounds are formulated in approximately 10 to 50% DMSO and given in a volume of 1 ml/kg body weight.
Tactile allodynia is measured prior to and 30 minutes after drug administration using von Frey hairs that are a series of fine hairs with incremental differences in stiffness. Rats are placed in a plastic cage with a wire mesh bottom and allowed to acclimate for approximately 30 minutes. The von Frey hairs are applied perpendicularly through the mesh to the mid-plantar region of the rats' hindpaw with sufficient force to cause slight buckling and held for 6-8 seconds. The applied force has been calculated to range from 0.41 to 15.1 grams. If the paw is sharply withdrawn, it is considered a positive response. A normal animal will not respond to stimuli in this range, but a surgically ligated paw will be withdrawn in response to a 1-2 gram hair. The 50% paw withdrawal threshold is determined using the method of Dixon, […]. The post-drug threshold is compared to the pre-drug threshold and the percent reversal of tactile sensitivity is calculated based on a normal threshold of 15.1 grams. The results are expressed in per cent (%) MPE, where the MPE value reflects the percentage reversal of pain threshold to that of a normal animal (100%). Table 4 below indicates results of this test with Compounds 8, 34 and 40 of the invention, administered i.p., in intrathecal and oral doses.

alpha2C receptor = target: T2, alpha2C receptor (Homo sapiens, UniProt P18825); experiment: Receptor Selection and Amplification Technology (RSAT) assay, alpha2C; type: cell-based; details: NIH-3T3 cells; for EC50: NA = not active at concentrations less than 10 micromolar, read-out: RSAT EC50 (nM) Alpha 2C; for fraction of activity of the standard (brimonidine) attained, Alpha 2C (number in parenthesis): ratio of maximal effect to that of standard full agonist brimonidine
T2 construct: expressed in transfected cells; host or cells: NIH-3T3
T2 sequence (P18825 1-462): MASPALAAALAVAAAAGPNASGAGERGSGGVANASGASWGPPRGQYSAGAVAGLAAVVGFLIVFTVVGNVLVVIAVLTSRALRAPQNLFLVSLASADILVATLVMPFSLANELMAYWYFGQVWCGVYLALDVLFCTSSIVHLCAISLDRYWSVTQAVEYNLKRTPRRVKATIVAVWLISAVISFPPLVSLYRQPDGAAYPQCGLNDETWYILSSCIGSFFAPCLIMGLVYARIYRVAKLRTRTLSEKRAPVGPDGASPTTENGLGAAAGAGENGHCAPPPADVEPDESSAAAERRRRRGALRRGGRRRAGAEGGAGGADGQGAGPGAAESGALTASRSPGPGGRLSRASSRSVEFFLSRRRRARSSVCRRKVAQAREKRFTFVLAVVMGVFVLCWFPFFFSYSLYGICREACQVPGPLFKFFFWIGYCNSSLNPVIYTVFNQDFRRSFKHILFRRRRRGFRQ
Source text: as §1, §2, §3, §4

## OCCNC(=S)NCC1CC=CCC1 (stereo not shown) [Compound 8, 1-Cyclohex-3-enylmethyl-3-(2-hydroxy-ethyl)-thiourea]
alpha2B receptor
  EC50: 17 nM
  fraction of activity of the standard (brimonidine) attained, Alpha 2B (number in parenthesis): (0.79)
[1]; IP dose 10 μg/kg
  % MPE: 1.5 ± 0.9 % MPE
[1]; IP dose 30 μg/kg
  % MPE: 47 ± 8.6 % MPE
[1]; IP dose 100 μg/kg
  % MPE: 63 ± 9.1 % MPE
[1]; IP dose 300 μg/kg
  % MPE: 56 ± 6.5 % MPE
[1]; IP dose 1000 μg/kg
  % MPE: 52 ± 8.4 % MPE
[1]; Intrathecal dose 30 μg
  % MPE: 0.02 ± 0.6 % MPE
[1]; Intrathecal dose 100 μg
  % MPE: 1.3 ± 0.6 % MPE
[1]; Intrathecal dose 300 μg
  % MPE: 20 ± 5.1 % MPE

## CC1=CCCC1NC(=S)NCCO (stereo not shown) [Compound 14, 1-(2-Hydroxy-ethyl)-3-(2-methyl-cyclopent-2-enyl)-thiourea]
alpha2B receptor
  EC50: 97 nM
  fraction of activity of the standard (brimonidine) attained, Alpha 2B (number in parenthesis): (0.95)
alpha2C receptor
  EC50: 3000 nM
  fraction of activity of the standard (brimonidine) attained, Alpha 2C (number in parenthesis): (0.3)

## CCCCC1=C(CNC(=S)NCCO)CCC1 [Compound 25, 1-(2-Butyl-cyclopent-1-enylmethyl)-3-(2-hydroxy-ethyl)-thiourea]
alpha2B receptor
  EC50: > 2000 nM
  fraction of activity of the standard (brimonidine) attained, Alpha 2B (number in parenthesis): (0.51)
alpha2C receptor
  EC50: 738 nM
  fraction of activity of the standard (brimonidine) attained, Alpha 2C (number in parenthesis): (0.69)

## CC1=C(CNC(=S)NCCO)CCC1 [Compound 27, 1-(2-Methyl-cyclopent-1-enylmethyl)-3-(2-hydroxy-ethyl)-thiourea]
alpha2B receptor
  EC50: 135 nM
  fraction of activity of the standard (brimonidine) attained, Alpha 2B (number in parenthesis): (0.75)
alpha2C receptor
  EC50: 1730 nM
  fraction of activity of the standard (brimonidine) attained, Alpha 2C (number in parenthesis): (0.3)

## CC1=C(C)C(NC(=S)NCCO)CCC1 (stereo not shown) [Compound 31, 1-(2,3-Dimethyl-cyclohex-2-enyl)-3-(2-hydroxy-ethyl)-thiourea]
alpha2B receptor
  EC50: 6 nM
  fraction of activity of the standard (brimonidine) attained, Alpha 2B (number in parenthesis): (0.8)
alpha2C receptor
  EC50: 253 nM
  fraction of activity of the standard (brimonidine) attained, Alpha 2C (number in parenthesis): (0.37)

## CCC1=CC(NC(=S)NCCO)CCC1 (stereo not shown) [Compound 32, 1-(2-Hydroxy-ethyl)-3-(3-ethyl-cyclohex-2-enyl)-thiourea]
alpha2B receptor
  EC50: 96 nM
  fraction of activity of the standard (brimonidine) attained, Alpha 2B (number in parenthesis): (0.37)

## CC1=CCCCC1NC(=S)NCCO (stereo not shown) [Compound 33, 1-(2-Hydroxy-ethyl)-3-(2-methyl-cyclohex-2-enyl)-thiourea]
alpha2B receptor
  EC50: 12 nM
  fraction of activity of the standard (brimonidine) attained, Alpha 2B (number in parenthesis): (0.71)
alpha2C receptor
  EC50: 251 nM
  fraction of activity of the standard (brimonidine) attained, Alpha 2C (number in parenthesis): (0.98)

## OCCNC(=S)NC1C=CCCC1 (stereo not shown) [Compound 35, 1-(Cyclohex-2-enyl)-3-(2-hydroxy-ethyl)-thiourea]
alpha2B receptor
  EC50: 73 nM
  fraction of activity of the standard (brimonidine) attained, Alpha 2B (number in parenthesis): (0.58)
alpha2C receptor
  EC50: 630 nM
  fraction of activity of the standard (brimonidine) attained, Alpha 2C (number in parenthesis): (0.4)

## CC[C@H]1CC[C@H](NC(=S)NCCO)CC1 [Compound 36, (trans)-1-(2-Hydroxy-ethyl)-3-(4-ethyl-cyclohexyl)-thiourea]
alpha2B receptor
  EC50: 97 nM
  fraction of activity of the standard (brimonidine) attained, Alpha 2B (number in parenthesis): (0.53)

## CC1CCCCC1NC(=S)NCCO (stereo not shown) [Compound 41, 1-(2-Methyl-cyclohexyl)-3-(2-hydroxy-ethyl)-thiourea]
alpha2B receptor
  EC50: 27 nM
  fraction of activity of the standard (brimonidine) attained, Alpha 2B (number in parenthesis): (0.78)
